Assay results published in patent publication US11484543B2, “Compositions and methods for diagnosing and treating diseases and disorders associated with mutant KCNJ5” (The Rockefeller University, priority 2017, dated 2022).
Substitutions are numbered along the chain they refer to. Where two headings read alike, the source gives them in different places.

Columns and labels:
Type in all cases: cell-based
[1] = target: T1, KCNJ5^WT (Homo sapiens, UniProt P48544); experiment: Membrane potential assay (FLIPR dye) in inducible KCNJ5^WT HEK293 cells; conditions: for WT IC50: 10-point dilution 20 to 0.0391 μM, N=3, four-parameter fit
T1 construct: expressed in transfected cells
T1 sequence (P48544 1-419): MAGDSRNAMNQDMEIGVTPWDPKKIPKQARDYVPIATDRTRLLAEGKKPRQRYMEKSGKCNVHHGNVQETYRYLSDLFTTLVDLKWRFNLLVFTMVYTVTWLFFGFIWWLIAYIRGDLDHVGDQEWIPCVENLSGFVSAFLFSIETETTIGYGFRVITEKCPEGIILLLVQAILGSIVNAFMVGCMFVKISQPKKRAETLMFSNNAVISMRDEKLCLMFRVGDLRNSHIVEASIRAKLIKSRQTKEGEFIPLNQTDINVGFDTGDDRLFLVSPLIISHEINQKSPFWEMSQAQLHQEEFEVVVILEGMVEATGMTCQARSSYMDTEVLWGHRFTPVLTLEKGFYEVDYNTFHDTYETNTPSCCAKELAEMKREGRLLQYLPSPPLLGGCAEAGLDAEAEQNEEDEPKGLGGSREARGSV
Method: (§1) Single copies of WT or mutant human KCNJ5 cDNAs expressed under the control of tetracycline-inducible promoter were introduced into HEK293 cells using the Flp-in T-Rex System (Invitrogen) according to the manufacturer's instructions. Cells were grown in selective media containing 10% Tet-system approved FBS (Clontech) until induction.
20 μL of WT cells were plated into sterile black with clear bottom tissue culture-treated 384-well plates (Corning) at a density of 10000 cells/well using a Multidrop Combi. Assay plates were centrifuged at 500 rpm for 10 seconds and incubated overnight at 37° C. in a humidified 5% CO2 incubator. After the overnight incubation, 1 μL of tetracycline (final conc. 1 μg/mL) was added to all wells by Multidrop Combi to induce KCNJ5. Assay plates were centrifuged at 500 rpm for 10 seconds and incubated overnight at 37° C. in a humidified 5% CO2 incubator. The next day, 10 μL of medium was removed from each well using a PlateMate Plus (Thermo Scientific). 10 μL of Blue Formula FLIPR membrane potential dye (Molecular Devices) was added to cells using a Multichannel pipettor. Assay plates were incubated for 30 minutes. at 37° C. After incubation, 20 nL was transferred twice from the compound source plate to the cell assay plate using an Aquarius with a 384-well pin tool for a total transfer volume of 40 nL and a final DMSO concentration of 0.2%. 1 μL of 20 mM BaCl2 was added to positive control wells using a Multichannel pipettor. The assay plate was incubated 20 minutes at room temperature in the dark.
Changes in membrane potential were detected using a well-established fluorescence-based measure of membrane potential (FIG. 4).

[2] = target: T2, KCNJ5^G151R (Homo sapiens, UniProt P48544, G151R); experiment: cell-based; conditions: for inhibition of KCNJ5^MUT (structure-activity statement): macrolide series, dilution curves
T2 construct: expressed in transfected cells
T2 sequence (P48544 1-419 G151R): T1 sequence (P48544 1-419) with G151R
Method: as §1, with “WT or mutant human KCNJ5 cDNAs (Choi et al., 2011, Science 331:768-772) were subcloned into the pcDNA5/FRT/TO vector using BamHI and HindIII. Single” for “Single”
(§2) Assay plates were centrifuged and incubated overnight at 37° C. 20 nL was transferred from the compound source plate to the cell assay plate using an Aquarius (Tecan) with a 384-well pin tool (V&P Scientific). The final concentration of compound for screening was 10 μM and the final DMSO concentration was 0.1%. 1 μL of tetracycline (final concentration 1 μg/mL) was added to compound containing and negative control wells by Multidrop Combi to induce expression. 1 μL of media was added to positive control wells. Assay plates were centrifuged and incubated for 72 hours at 37° C., 5% CO2. CellTiter-Glo (Promega) was used to measure cell viability in the assay wells according to the manufacturer's instructions. 10 μL/well of CellTiter-Glo reagent was added to the assay plates using a MultiDrop Combi. The plates were shaken on a Thermomixer R (Eppendorf) at 1100 rpm for 1 minute and incubated in the dark for 10 minutes at room temperature. Luminescence was read on an Envision plate reader (PerkinElmer) with 0.3 second sampling time per well. Raw data (luminescence counts per second) was normalized to percent effect by the formula 100−(((sample−negative control mean)/(positive control mean−negative control mean))*100).
(§3) Data was analyzed using the programs Excel (Microsoft) and Prism (GraphPad). Errors are SD unless otherwise indicated in the legend. Dose-response curves were fitted with a four-parameter logistic equation: F(x)=D+(A−D)/(1+(x/C)^B), with A=minimum inhibition B=Hill's slope C=inflection point D=maximum inhibition Synthesis of Macrolide Derivatives
(§4) Cellular ATP levels were measured as a proxy for cell viability, using a commercially available luciferase assay (Crouch et al., 1993, Proc. Natl. Acad. Sci. U.S.A. 109:2533-2538).
(§5) Conditions were designed to maximize reproducibility and the signal-to-background ratios (S/B) (Zhang et al., 1999, J. Biomol. Screen 4:67-73) comparing ATP level in uninduced and induced cells. Screening was performed in 384-well plates; compounds were added 24 hours after plating, and channel expression was induced immediately after compound addition. ATP levels were measured 72 hours after induction.
Levels of ATP in uninduced and induced cells without added test compound defined 100% and 0% effect, respectively, and served as a proxy for lethality.

[3] = target: T3, KCNJ5^L168R (Homo sapiens, UniProt P48544, L168R); experiment: Cell viability assay (ATP, CellTiter-Glo): rescue of KCNJ5^L168R-induced lethality in inducible HEK293 cells; conditions: for IC50 / L168R maximum inhibition / L168R minimum inhibition / L168R IC50: 10-point dilution 20 to 0.0391 μM, N=3, four-parameter fit; for dose response on KCNJ5^L168R: tested at 1.1, 3.3 and 10 μM
T3 construct: expressed in transfected cells
T3 sequence (P48544 1-419 L168R): T1 sequence (P48544 1-419) with L168R
Method: as §1, with “WT or mutant human KCNJ5 cDNAs (Choi et al., 2011, Science 331:768-772) were subcloned into the pcDNA5/FRT/TO vector using BamHI and HindIII. Single” for “Single”
as §2, §3, §4, §5

[4] = 10-point dilution 20 to 0.0391 μM, N=3, four-parameter fit
[5] = tested as in FIG. 7 (FIGS. 9 and 10)

Row | Structure (SMILES) | WT IC50 [1] | G151R maximum inhibition [2, 4] | G151R minimum inhibition [2, 4] | IC50 [2, 4] | IC50 [3] | L168R maximum inhibition [3] | L168R minimum inhibition [3] | dose response on KCNJ5^L168R [3] | G151R IC50 [2, 4] | inhibition of KCNJ5^MUT (structure-activity statement) [2] | L168R IC50 [3] | inhibition of KCNJ5^WT by synthesized macrolide derivatives [1, 5] | inhibition of KCNJ5^G151R by synthesized macrolide derivatives [2, 5] | inhibition of KCNJ5^L168R by synthesized macrolide derivatives [3, 5] | WT IC50 ([1]; listed as idremcinal) | viability at 10 µM ([2]; HEK293, 72 h, mean of primary screen and hit pick, read-out: mean % effect) | viability at 10 µM ([2]; HEK293, ATP level 72 h after induction, uninduced = 100%, induced = 0% effect, first of the two runs (primary screen / hit pick), read-out: % effect (1)) | viability at 10 µM ([2]; HEK293, ATP level 72 h after induction, uninduced = 100%, induced = 0% effect, second of the two runs (primary screen / hit pick, confirmatory testing), read-out: % effect (2))
1 | CC[C@H]1OC(=O)[C@H](C)[C@@H](O[C@H]2C[C@@](C)(OC)[C@@H](O)[C@H](C)O2)[C@H](C)[C@@H](O[C@@H]2O[C@H](C)C[C@H](NC)[C@H]2O)[C@](C)(O)C[C@@H](C)/C(=N\OCOCCOC)[C@H](C)[C@@H](O)[C@]1(C)O [N-demethyl Roxithromycin, N-demethyl roxithromycin] | No fit | 96.20% | 4.50% | 0.82 µM | 1.18 µM | 76.95% | 1.12% | showed a dose response | – | – | – | – | – | – | – | – | – | –
2 | CC[C@H]1OC(=O)[C@H](C)[C@@H](O[C@H]2C[C@@](C)(OC)[C@@H](O)[C@H](C)O2)[C@H](C)[C@@H](O[C@@H]2O[C@H](C)C[C@H](N(C)C)[C@H]2O)[C@](C)(O)C[C@](C)(F)C(=O)[C@H](C)[C@@H](O)[C@]1(C)O [Flurithromycin, flurithromycin] | No fit | – | – | – | – | – | – | – | No fit | negligible activity | No fit | – | – | – | – | – | – | –
3 | CCCCN(C)[C@H]1C[C@@H](C)O[C@@H](O[C@@H]2[C@@H](C)[C@H](O[C@H]3C[C@@](C)(OC)[C@@H](O)[C@H](C)O3)[C@@H](C)C(=O)O[C@H](CC)[C@@](C)(O)[C@H](O)[C@@H](C)[C@@H](O)[C@H](C)C[C@@]2(C)O)[C@@H]1O [PLUX33, N-demethyl-9-deoxo-9-hydroxy-N-butyl-(9S)-erythromycin] | – | – | – | – | – | – | – | – | – | – | – | no inhibition | significant inhibition | significant inhibition | – | – | – | –
4 | CC[C@H]1OC(=O)[C@H](C)[C@@H](O[C@H]2C[C@@](C)(OC)[C@@H](O)[C@H](C)O2)[C@H](C)[C@@H](O[C@@H]2O[C@H](C)C[C@H](N(C)C(C)C)[C@H]2O)[C@@]2(C)CC(C)=C(O2)[C@H](C)[C@@H](O)[C@]1(C)O [Idremcinal, idremcinal] | No fit | 93.39% | 6.38% | 0.6 µM | 1.99 µM | 66.69% | −1.28% | – | – | – | – | – | – | – | no dose response | – | – | –
5 | CC[C@H]1OC(=O)[C@H](C)[C@@H](O[C@H]2C[C@@](C)(OC)[C@@H](O)[C@H](C)O2)[C@H](C)[C@@H](O[C@@H]2O[C@H](C)C[C@H](N(C)C)[C@H]2O)[C@](C)(O)C[C@@H](C)CN(C)[C@H](C)[C@@H](O)[C@]1(C)O [Azithromycin, azithromycin] | No fit | 32.00% | 5.11% | 5.69 µM | 8.05 µM | 12.01% | 0.71% | – | – | – | – | – | – | – | – | – | – | –
6 | CC[C@H]1OC(=O)[C@H](C)[C@@H](O[C@H]2C[C@@](C)(OC)[C@@H](O)[C@H](C)O2)[C@H](C)[C@@H](O[C@@H]2O[C@H](C)C[C@H](N(C)C)[C@H]2O)[C@](C)(OC)C[C@@H](C)C(=O)[C@H](C)[C@@H](O)[C@]1(C)O [Clarithromycin, clarithromycin] | No fit | 83.09% | 6.40% | 0.71 µM | 1.72 µM | 55.70% | 2.35% | showed a dose response | – | potent effects | – | – | – | – | – | – | – | –
7 | CC[C@H]1OC(=O)[C@H](C)[C@@H](O[C@H]2C[C@@](C)(OC)[C@@H](O)[C@H](C)O2)[C@H](C)[C@@H](O[C@@H]2O[C@H](C)C[C@H](N(C)C)[C@H]2O)[C@](C)(O)C[C@@H](C)C(=O)[C@H](C)[C@@H](O)[C@]1(C)O [Erythromycin, erythromycin] | No fit | 90.00% | 3.55% | 10.5 µM | 11.8 µM | 25.00% | 0.71% | showed a dose response | – | – | – | – | – | – | – | 73% | 91.9% | 54.2%
8 | CC[C@@H](O)[C@@](C)(O)[C@@H]1OC(=O)[C@H](C)[C@@H](O[C@H]2C[C@@](C)(OC)[C@@H](O)[C@H](C)O2)[C@H](C)[C@@H](O[C@@H]2O[C@H](C)C[C@H](N(C)C)[C@H]2O)[C@@]2(C)CC(C)=C(O2)[C@@H]1C [Pseudo Erythromycin A Enol Ether, pseudo erythromycin A enol ether] | No fit | 11.13% | 1.58% | 0.65 µM | – | – | – | – | – | – | No Fit | – | – | – | – | – | – | –
